For orientation: inhibition means the relative decrease from the control value, in per cent.

The test has as its target T1, HIV-1 reverse transcriptase (Human immunodeficiency virus type 1 group M subtype B, UniProt P04585).
T1 construct: used as a source of HIV-1 reverse transcriptase; endogenous in cells; host or cells: Virions pelleted from conditioned supernatant of H9 cells infected with HTLV-IIIB, lysed with Triton X-100
In words: Inhibition of HIV-1 reverse transcriptase activity in vitro (viral lysate, poly(A).(dT)15 template-primer, [3H]dTTP incorporation). The class given is biochemical. The note with it: Concentration 400 micromolar; 37°C, 1 h; read-out: Percent Inhibition. The method, then: Reverse Transcriptase Assays. Virus was concentrated from cell-free ([…]) conditioned H9/HTLV-IIIB culture supernatants by centrifugation at 18,000 r.p.m. for 4 h at 20°C in a Beckman JA-20 rotor. A viral pellet obtained from 50 ml of conditioned culture fluid was dissolved in 0.5 mL of a solution containing 17 mM Tris-HCl (pH 7.8), 3mM dithiothreitol (DTT), 55 mM KC1, 0.32% w/v Triton X-100, and 33% glycerol. This viral lysate was stored at -20°C and was used as a source of HIV-1 reverse transcriptase. Reverse transcriptase reactions were performed in 100 µL reaction volumes containing 40 mM Tris-HC1 (pH 7.8), 4 mM DTT, 50 mM KCl, 10 mM MgCl2, 0.0325% w/v Triton X-100, 3 micromolar [^33H]dTTP (80 Ci/mmol,NEN) and poly (A).(dT)15 (2.5 microgram/mL) template-primer after the addition of 10 microliter enzyme. Inhibitors were added at various concentrations after adjusting water volumes so that reaction volumes remained constant. Reactions were incubated at 37°C for 1 h in a humidified environment and terminated by adding 2 mL of 10% cold trichloroacetic acid. Precipitate was collected on 0.45 µm cellulose-acetate Millipore filters which were then dissolved in 10 mL of 3a70B aqueous scintillant and the counts per minute quantitated using a Beckman LS 6800 liquid scintillation spectrometer.

With `Nc1ncnc2c1ncn2[C@@H]1O[C@H](CO)[C@@H](O)[C@H]1O` [(adenosine) A, adenosine], the inhibition at 400 µM was 0%.

Turning to `Nc1ncnc2c1ncn2[C@@H]1O[C@H](CO)C[C@H]1O` [cordycepin (C), 3'-deoxyadenosine], the inhibition at 400 µM stood at 0%.

These data come from patent EP0716856B1, “Therapeutic uses of 2',5'-oligoadenylate derivatives” (Temple University of the Commonwealth System of Higher …, priority 1988, dated 1989).
